We go through 15 compounds from US9238634B2, “Anti-inflammatory metabolite derived from omega-3-type fatty acid” (THE UNIVERSITY OF TOKYO, priority 2010, dated 2016).

This test relates to PMN (neutrophils). Put plainly: Zymosan peritonitis model, number of PMN (neutrophils) in intraperitoneal cells by FACS. The following applies: for PMN (mean % suppression) / Inhibition rate (PMN inhibition): caudal vein, zymosan 1 mg i.p.; for PMN (mean % suppression): two hours; for suppression of neutrophil infiltration: caudal vein (FIG. 4C); for Inhibition rate (PMN inhibition): cells recovered two hours later. Type of test: in vivo, C57BL/6J mice. On the procedure:
[FIG. 4A] […] The model was produced by inducing acute peritonitis by intraperitoneal administration of 1 mg of zymosan to C57BL6 mice. From the left, 17,18-EpETE, 5-hydroxy-17,18-epoxy-ETE (5hy-17,18-EpETE), 8-hydroxy-17,18-epoxy-ETE (8hy-17,18-EpETE), 12-hydroxy-17,18-epoxy-ETE (12hy-17,18-EpETE), and 15-hydroxy-17,18-epoxy-ETE (15hy-17,18-EpETE) respectively ([…]) were injected from a caudal vein of the mouse, and peritonitis was initiated by intraperitoneal administration of 1 mg of zymosan five minutes later. Intraperitoneal cells were recovered two hours later, and the results obtained by analyzing the number of PMN (neutrophils) of each by FACS are shown. […]
Zymosan peritonitis induced by intraperitoneal administration of zymosan, which is a cell wall component of yeast, was used as the inflammation model. This model is suited to the analysis of cytokines and eicosanoids since the intraperitoneal exudate can be recovered.
Zymosan A (Wako Pure Chemical Industries) was suspended in physiological saline to make 1 mg/mL and warmed for 30 minutes at 37° C. The zymosan A solution was then vortexed and returned to room temperature. A compound synthesized in a previous example was placed in a 1.5 mL tube and completely dried by driving off the solvent by nitrogen. It was then dissolved by adding physiological saline. […] Groups injected with only physiological saline (saline) or dexamethasone (10 μg/mouse), which is an anti-inflammatory steroid, were used as controls. Approximately two minutes later, 1 mL of zymosan A solution was administered intraperitoneally. Two hours later, cells that had exuded into the peritoneal cavity were recovered by tube by PBS, and the cells were counted. This tube was then centrifuged for five minutes at 1200 rpm, 4° C., and the supernatant was discarded. The precipitate (pellets) was suspended in PBS, and population analysis was performed by FACS three-color stain.
Peritoneal cells were adjusted to 2.5×10^6 cells/mL, and 200 μL was placed in a 5 mL round-bottomed tube (BD Falcon) (5×10^5 cells/tube). A quantity of 1 μL/tube of anti-mouse CD16/CD32 antibody (0.5 mg/mL; BD Biosciences) was added to this tube and incubated for 10 minutes at room temperature. Staining antibody mix (1.0 μL/sample of FITC-bound anti-mouse F4/80 antibody (0.5 mg/mL; eBioscience), 0.5 μL of PE-bound anti-mouse Ly-6G&Ly-6C antibody (0.2 mg/mL; eBioscience), and 0.5 μL of perCP-Cy5.5-bound anti-mouse CD11b antibody (0.2 mg/mL; eBioscience) per sample prepared by dilution by 50 μL of PBS) was added to this tube in a quantity of 50 μL/tube and incubated for 15 minutes at room temperature shielded from light. Measurement was performed by an FACS Calibur (BD Biosciences).
(Flow cytometry measures light scatter and fluorescence of single cells or particles in a stream.)

Setting [1] is: 100 ng, Table 6 (FIG. 4D), mean of 6-11 studies.
Setting [2] is: 100 ng, Table 4 (FIG. 4B), mean of 3-4 studies.
Setting [3] is: 100 ng, Table 3 (FIG. 4A), mean of 4-6 studies.
[4] abbreviates: 100 ng, Table 5 (FIG. 4B), mean of 3-4 studies.

Take “14-hydroxy-19,20-epoxy-docosatetraenoic acid [14hy-19,20-EpDTE]”: the “suppression of neutrophil infiltration, result in words” value (“suppression … in words” for short) (100 ng) was “statistically significant effects”. Further, the “PMN (mean % suppression)” value under setting [1] was 15.35%.

“17-hydroxy-19,20-epoxy-docosatetraenoic acid [17hy-19,20-EpDTE]”: the “suppression … in words” value (100 ng) is given as “statistically significant effects”. For the same compound, under setting [1], the “PMN (mean % suppression)” value came out at 23.28%.

In the case of `CCC1OC1CC=CCC=CCC=CCC=CC=CC(O)CCC(=O)O` (stereo not shown) [4-hy-19,20-EpDPE, 4-hydroxy-19,20-epoxy-docosapentaenoic acid], the “suppression … in words” value (100 ng) is recorded as “tend to suppress neutrophil infiltration”. Besides, the “PMN (mean % suppression)” value reads like this: under setting [2], 2.1%; (500 ng, Table 4 (FIG. 4B)) 0.0%.

Regarding `CCC1OC1CC=CCC=CCC=CC=CC(O)CCCC(=O)O` (stereo not shown) [5-hy-17,18-EpETE, 5-hydroxy-17,18-epoxy-eicosatetraeonic acid], the “PMN (mean % suppression)” value under setting [3] was found to be 50.6%.

As to `CCC1OC1CC=CCC=CCC=CC=CC(O)CC=CCCC(=O)O` (stereo not shown) [7-hy-19,20-EpDPE, 7-hydroxy-19,20-epoxy-docosapentaenoic acid], the “PMN (mean % suppression)” value is, setting by setting: under setting [2], 0.0%; (500 ng, Table 4 (FIG. 4B)) 8.7%. Also, the “suppression … in words” value (500 ng) was “tend to suppress neutrophil infiltration”.

With `CCC1OC1C/C=C\C/C=C\C=C\C(O)C/C=C\CCCC(=O)O` (stereo not shown) [8-hy-17,18-EpETE, 8-hydroxy-17,18-epoxy-eicosatetraenoic acid], the “PMN (mean % suppression)” value under setting [3] was 10.4%.

In the case of `CCC1OC1CC=CCC=CC=CC(O)CC=CCC=CCCC(=O)O` (stereo not shown) [10-hy-19,20-EpDPE, 10-hydroxy-19,20-epoxy-docosapentaenoic acid], the “PMN (mean % suppression)” value under setting [4] was found to be 20.7%.

In the case of `CCC1OC1C/C=C\C/C=C\C=C\C(O)C/C=C\CCCCCC(=O)O` (stereo not shown) [10hy-19,20-EpDTE, 10-hydroxy-19,20-epoxy-docosatetraenoic acid], for the setting “100 ng”, the “suppression … in words” value is reported as “tendency toward suppression”. Further, the “PMN (mean % suppression)” value under setting [1] came to 8.27%.

On to `CCC1OC1CC=CCC(O)C=CC=CCC=CCCCC(=O)O` (stereo not shown) [12hy-17,18-EpETE, 12-hydroxy-17,18-epoxy-eicosatetraenoic acid], for which the “suppression of neutrophil infiltration” value is 30% (1 ng/mouse) and “approximately 40%” (10 ng/mouse). Besides, under setting [3], the “PMN (mean % suppression)” value turned out to be 48.4%. Besides, the “neutrophil-suppressing activity compared with dexamethasone control” value (1 or 10 ng/mouse versus 10 μg/mouse of dexamethasone) is “equivalent to or better than”. The “Inhibition rate (PMN inhibition)” value reads like this: (dose 0.44 ng) 28.8%; (dose 4.35 ng) 39.3%; (dose 43.48 ng) 56.3%; (dose 434.8 ng) 49.8%. Moreover, the “dose dependence of PMN inhibition” value (doses 0.44 to 434.3 ng (FIG. 4C)) was “dose-dependent”.

Turning to `CCC1OC1CC=CC=CC(O)CC=CCC=CCC=CCCC(=O)O` (stereo not shown) [13-hy-19,20-EpDPE, 13-hydroxy-19,20-epoxy-docosapentaenoic acid], the “PMN (mean % suppression)” value under setting [4] is recorded as 12.0%.

Regarding `CCC1OC1CC=CCC(O)C=CC=CCC=CCC=CCCC(=O)O` (stereo not shown) [14-hy-19,20-EpDPE, 14-hydroxy-19,20-epoxy-docosapentaeonic acid], under setting [4], the “PMN (mean % suppression)” value is 57.3%.

As to `CCC1OC1CC(O)/C=C/C=C\C/C=C\C/C=C\CCCC(=O)O` (stereo not shown) [15-hy-17,18-EpETE, 15-hydroxy-17,18-epoxy-eicosatetraenoic acid], the “PMN (mean % suppression)” value under setting [3] stood at 42.9%.

Regarding `CCC1OC1C/C=C\C/C=C\C/C=C\C/C=C\CCCC(=O)O` (stereo not shown) [17,18-EpETE, 17,18-epoxyeicosatetraenoic acid, reference compound], the “PMN (mean % suppression)” value under setting [3] was found to be 0.0%.

With `CCC1OC1CC(O)C=CC=CCC=CCC=CCC=CCCC(=O)O` (stereo not shown) [17-hy-19,20-EpDPE, 17-hydroxy-19,20-epoxy-docosapentaenoic acid], the “PMN (mean % suppression)” value under setting [4] stood at 59.5%.

For `CCC1OC1CC=CCC=CCC=CCC=CCC=CCCC(=O)O` (stereo not shown) [19,20-EpDPE, 19,20-epoxydocosapentaenoic acid, reference compound], the “PMN (mean % suppression)” value runs as follows: under setting [2], 0.0%; under setting [4], 0.0%.
